In patent EP3281644A1, “STABLE FLUORESCENT NANOVESICLES, METHOD FOR OBTAINING THEM AND USES THEREOF” (Consejo Superior De Investigaciones Científicas, priority 2016, dated 2018):

Key:
[1] = Photochemical decomposition quantum yield under continuous laser irradiation; assay type: physicochemical; settings: free dye in EtOH; diode laser 660 nm
Experimental: Photostabilities of DiD in EtOH and of DiD-nanovesicles were analyzed by monitoring the evolution over time of absorbance of the samples under continuous laser irradiation. The data are shown in Table below and are also represented in Figure 8. Additional column in Table 1 for rows of DiD
The quantum yields of photoreaction were calculated following the method proposed by Belfield et al. "Photophysical and photochemical properties of 5,7-di-methoxycoumarin under one- and two-photon excitation". J. Phys. Org. Chem. 16, 69-78 (2003).
Sample photostability under continuous-wave excitation was determined by measuring the photochemical decomposition quantum yield. […]
Quantum yields of photochemical decomposition were measured in ethanol (for DID) and water (FI, NDB and all nanovesicle samples) using absorption and fluorescence methods, where the number of bleached molecules is determined by a kinetic decrease in absorbance or fluorescence intensity under the assumption that fluorescence and absorbance of the photoproducts are negligible in the spectral region of dye fluorescence and main absorption band. Fluorescence method was used to estimate the photostability of dilute samples (with maximum absorbance < 0.1), while photochemical decomposition quantum yields of concentrated solutions (with maximum absorbance ≈ 1) were determined by absorption method. […]

[2] = reference standard; in methanol; cited from earlier work

CCCCCCCCCCCCCCCCCCN1C(=CC=CC=CC2=[N+](CCCCCCCCCCCCCCCCCC)c3ccccc3C2(C)C)C(C)(C)c2ccccc21.[O-][Cl+3]([O-])([O-])[O-] [DiD EtOH, 1,1'-dioctadecyl-3,3,3',3'-tetramethyl-indodicarbocyanine perchlorate]
Photodecomposition QY*10^-5 [1]: <0,008 *10^-5

cresyl violet
QY, Φ [2]: 56%
